This is an account of results in patent publication US6455270B1, “Method for inhibiting eukaryotic protein kinases” (TerraGen Discovery Inc., priority 1997, dated 2002).

In one experiment the test system is Streptomyces 85E. Nature of the experiment: Inhibition of sporulation in Streptomyces 85E (filter paper disc on freshly seeded plate). The format is cell-based, Streptomyces WEC478-85E. As to conditions: for zone of inhibition at 10 µg/disc: Streptomyces, 85E, 10 ug compound applied to disc; for Growth of the vegetative mycelia: disc assay, 10 ug. An excerpt:
adding the material to be tested for kinase inhibitory activity to a growing culture of a prokaryotic organism such as a streptomycete;
allowing the culture to grow for a period of time in the presence of the material; and
observing the culture for altered development relative to development of the prokaryotic organism grown in the absence of the material. Observation of altered development is indicative that the material has activity as an inhibitor of post-translational protein phosphorylation. In particular, the material to be tested can be added to a growing culture of the prokaryotic organism by placing a carrier disk bearing the material on a freshly seeded plate. Inhibition of the development of aerial mycelia and spore formation is an indicator that the material has activity as an inhibitor of post-translational protein phosphorylation.
We have used a wild strain of Streptomyces isolated from soil and designated Streptomyces WEC478-85E (hereinafter strain 85E) to test lichen extracts. Strain 85E has been deposited with the American Type, Culture Collection in accordance with the provisions of the Budapest treaty and has been assigned Accession Number ATCC 55824.
In the test assay, the lichen-extract to be tested was applied to a filter paper disk and then placed on a plate which has been freshly seeded with the strain 85E test organism. The test organism is then allowed to grow in the presence of the filter paper disk for a period of 24 to 36 hours, after which the organism is evaluated for altered development in the zone around the disk. An observation of an inhibition of the formation of aerial mycelia and spores, without inhibition of the growth of vegetative mycelia is particularly indicative of the presence of an inhibitor of post-translational phosphorylation.

The next experiment addresses Human c-Src kinase (Homo sapiens, UniProt P12931). Nature of the experiment: Human c-Src kinase inhibition (PTK reaction). The format is biochemical. As to conditions: 0.2 unit c-Src. The method, then: I. Human c-Src kinase incubated 30 min. at 30° C. with 5 ug usnic acid or-vulpinic acid: II. Human c-Src incubated 5 min. at 30° C. with 5 ug usnic acid or 5 ug vulpinic acid: 5 ug in the 50 ul PTK reaction mixture represents a concentration of about 300 uM for both of these compounds and twice that in the 25 ul PKC reactions. Thus, inhibition was detected for this particular protein tyrosine kinase and only minimally inhibitory for protein kinase C. Other protein kinases may show greater or lesser levels of inhibition.

In a further experiment the test system is Protein Kinase C. Nature of the experiment: Protein Kinase C inhibition (PKC reaction). The format is biochemical. As to conditions: 10 ng PKC, incubated 30 min. at 30° C. with 5 ug compound (about 600 uM in 25 ul). As to the method:
III. Protein Kinase C incubated 30 min. at 30° C. with 5 ug usnic acid or 5 ug vulpinic acid: 5 ug in the 50 ul PTK reaction mixture represents a concentration of about 300 uM for both of these compounds and twice that in the 25 ul PKC reactions. Thus, inhibition was detected for this particular protein tyrosine kinase and only minimally inhibitory for protein kinase C. Other protein kinases may show greater or lesser levels of inhibition.

Chain of Human c-Src kinase (P12931 whole entry): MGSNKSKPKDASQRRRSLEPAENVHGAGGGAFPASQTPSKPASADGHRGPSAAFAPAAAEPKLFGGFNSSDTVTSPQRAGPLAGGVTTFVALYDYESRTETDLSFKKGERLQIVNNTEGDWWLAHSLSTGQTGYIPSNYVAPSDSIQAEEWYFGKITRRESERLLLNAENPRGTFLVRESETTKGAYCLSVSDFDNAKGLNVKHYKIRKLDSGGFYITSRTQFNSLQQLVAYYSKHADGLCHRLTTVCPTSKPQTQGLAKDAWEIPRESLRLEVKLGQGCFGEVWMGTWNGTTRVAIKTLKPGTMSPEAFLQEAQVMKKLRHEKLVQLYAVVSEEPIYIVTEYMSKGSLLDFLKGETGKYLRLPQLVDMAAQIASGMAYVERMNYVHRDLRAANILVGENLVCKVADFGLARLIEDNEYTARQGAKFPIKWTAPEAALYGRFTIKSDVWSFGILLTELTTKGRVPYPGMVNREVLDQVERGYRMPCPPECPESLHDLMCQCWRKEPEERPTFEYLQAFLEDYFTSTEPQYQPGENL

A word on the zone of inhibition: it is the extent of the growth-free halo in a diffusion test. As for `CC(=O)c1c(O)c(C)c(O)c2c1OC1=CC(=O)C(C(C)=O)C(=O)C12C` (stereo not shown) [usnic acid], in the experiment on Streptomyces 85E, the zone of inhibition at 10 µg/disc was 15 mm and the “Growth of the vegetative mycelia” value is “not inhibited”.

Take `COC(=O)/C(=C1/OC(=O)C(c2ccccc2)=C1O)c1ccccc1` [vulpinic acid]: the “c-Src kinase reaction reading (control reaction 0.208)” value on Human c-Src kinase (incubated 5 min. at 30° C. with 5 ug compound (about 300 uM in 50 ul)) amounted to 0.180. On Human c-Src kinase (incubated 30 min. at 30° C. with 5 ug compound (about 300 uM in 50 ul)), the “c-Src kinase reaction reading (control reaction 0.562)” value stood at 0.483. In addition, the “Protein Kinase C reaction reading (control reaction 0.289)” value with Protein Kinase C is reported as 0.230. Besides, in the experiment on Streptomyces 85E, the zone of inhibition at 10 µg/disc stood at 15 mm and the “Growth of the vegetative mycelia” value is recorded as “not inhibited”.
